# After the bases stand the sugars from the 5' end (letter, count) and the backbone: PS all phosphorothioate, else s phosphorothioate and o phosphodiester by linkage. Methylation of C is not given here. e = 2'-O-(2-methoxyethyl) (MOE); k = constrained ethyl (cEt); d = 2'-deoxy (DNA); m = 2'-O-methyl
# Molecular target: HSD17B13
# Conditions: ASO, HepaRG
Sequence,target mRNA inhibition (1 µM) [%],other results
"GCAGAAATTCACCTTG (sugars k3 d1 m1 d8 k3, PS)",54,–
"GCAGAAATTCACCTTG (sugars k3 d9 k3 e1, PS)",62,–
"GCAGAATATATACTAG (sugars k3 d10 k3, PS)",55,–
"GCAGAGACAGTAGATT (sugars k3 d10 k3, PS)",63,–
"GCAGATTATTATGTGA (sugars k3 d10 k3, PS)",59,–
"GCAGTAAAGTGCTAAG (sugars k3 d10 k3, PS)",83,target mRNA inhibition (0.02 µM): 44%; target mRNA inhibition (0.078 µM): 37%; target mRNA inhibition (0.313 µM): 62%; target mRNA inhibition (1.25 µM): 78%; target mRNA inhibition (5 µM): 91%
"GCATAAGTTACCAGAG (sugars k3 d10 k3, PS)",79,target mRNA inhibition (0.02 µM): 0%; target mRNA inhibition (0.078 µM): 0%; target mRNA inhibition (0.313 µM): 40%; target mRNA inhibition (1.25 µM): 51%; target mRNA inhibition (5 µM): 85%
"GCATATTCATTTGGCC (sugars k3 d10 k3, PS)",6,–
"GCATCAAGACATTCTA (sugars k3 d1 m1 d8 k3, PS)",51,–
"GCATCAAGACATTCTA (sugars k3 d9 k3 e1, PS)",84,target mRNA inhibition (0.02 µM): 0%; target mRNA inhibition (0.078 µM): 8%; target mRNA inhibition (0.313 µM): 13%; target mRNA inhibition (1.25 µM): 31%; target mRNA inhibition (5 µM): 74%
"GCATGGCTACAGATTG (sugars k3 d1 m1 d8 k3, PS)",76,target mRNA inhibition (0.02 µM): 2%; target mRNA inhibition (0.078 µM): 2%; target mRNA inhibition (0.313 µM): 31%; target mRNA inhibition (1.25 µM): 61%; target mRNA inhibition (5 µM): 78%
"GCATGGCTACAGATTG (sugars k3 d10 k3, PS)",56,–
"GCATGGCTACAGATTG (sugars kkdddddddddkekek, PS)",41,–
"GCATTAATGCCACCCT (sugars k3 d10 k3, PS)",36,–
"GCATTCATCAGATGTT (sugars k3 d10 k3, PS)",89,target mRNA inhibition (0.02 µM): 3%; target mRNA inhibition (0.078 µM): 24%; target mRNA inhibition (0.313 µM): 66%; target mRNA inhibition (1.25 µM): 86%; target mRNA inhibition (5 µM): 91%
"GCCAAAAATCAGCCAC (sugars k3 d10 k3, PS)",11,–
"GCCAACACTAATCTCA (sugars k3 d10 k3, PS)",40,–
"GCCACTGGATGGATTT (sugars k3 d10 k3, PS)",36,–
"GCCACTGTGACGATGT (sugars k3 d10 k3, PS)",9,–
"GCCAGTACAGTTCCTT (sugars k3 d10 k3, PS)",61,–
"GCCTAAAATTGTCTAA (sugars k3 d10 k3, PS)",32,–
"GCCTAAACATTTCTCA (sugars k3 d10 k3, PS)",2,–
"GCCTAAAGGAGATCTG (sugars k3 d10 k3, PS)",67,–

Sequence,target mRNA inhibition (1 µM) [%],other results
"GCCTTACCAGAATTTA (sugars k3 d10 k3, PS)",75,–
"GCGATAGATCTCTTCT (sugars k3 d10 k3, PS)",24,–
"GCTAAAATGGTCATCT (sugars k3 d10 k3, PS)",40,–
"GCTAAGTATACTTTCT (sugars k3 d10 k3, PS)",37,–
"GCTAATGTATGAGGTC (sugars k3 d10 k3, PS)",78,target mRNA inhibition (0.02 µM): 0%; target mRNA inhibition (0.078 µM): 0%; target mRNA inhibition (0.313 µM): 34%; target mRNA inhibition (1.25 µM): 64%; target mRNA inhibition (5 µM): 82%
"GCTATAGGTAGCTAAT (sugars k3 d10 k3, PS)",20,–
"GCTCCAGTAATGAGAA (sugars k3 d10 k3, PS)",34,–
"GCTGAAACTGCTGATT (sugars k3 d10 k3, PS)",38,–
"GCTGAGAGTTCTACAC (sugars k3 d10 k3, PS)",45,–
"GCTGATTAATCTTGAT (sugars k3 d10 k3, PS)",48,–
"GCTGCTAGTGCCAAAC (sugars k3 d10 k3, PS)",67,–
"GCTGCTATTTAGGGCA (sugars k3 d10 k3, PS)",53,–
"GCTGTAATTAGGAAGA (sugars k3 d10 k3, PS)",24,–
"GCTGUAAGAGTCAGTA (sugars k3 d1 m1 d8 k3, PS)",28,–
"GCTTAATGTTCAGTTT (sugars k3 d10 k3, PS)",50,–
"GCTTATGAAGTTAGTA (sugars k3 d10 k3, PS)",67,target mRNA inhibition (0.02 µM): 0%; target mRNA inhibition (0.078 µM): 17%; target mRNA inhibition (0.313 µM): 27%; target mRNA inhibition (1.25 µM): 66%; target mRNA inhibition (5 µM): 86%
"GCTTTAGCTTAAACTC (sugars k3 d10 k3, PS)",72,–
"GCTTTTGTCCACCTTT (sugars k3 d10 k3, PS)",68,target mRNA inhibition (0.02 µM): 28%; target mRNA inhibition (0.078 µM): 44%; target mRNA inhibition (0.313 µM): 61%; target mRNA inhibition (1.25 µM): 82%; target mRNA inhibition (5 µM): 97%
"GGAATGCTACTTGAAC (sugars k3 d10 k3, PS)",63,–
"GGACAAATGCCTGAGA (sugars k3 d10 k3, PS)",52,–
"GGACCAAGGATATATG (sugars k3 d10 k3, PS)",56,–
"GGAGGTAGCTTTTGTC (sugars k3 d10 k3, PS)",43,–
"GGATAAGAAGAGAGCT (sugars k3 d10 k3, PS)",46,–

Sequence,target mRNA inhibition (1 µM) [%],other results
"GGATAGTCCATGCAAA (sugars k3 d10 k3, PS)",64,–
"GGCAAAAGGAGCCAGT (sugars k3 d10 k3, PS)",43,–
"GGCAAAGATCTGGCCA (sugars k3 d10 k3, PS)",10,–
"GGCAAATACAGCAGTA (sugars k3 d10 k3, PS)",64,–
"GGCAAGACAGACTGTT (sugars k3 d10 k3, PS)",75,–
"GGCAAGGATACCTGAA (sugars k3 d10 k3, PS)",67,–
"GGCACTCAGCTGCAGT (sugars k3 d10 k3, PS)",49,–
"GGCATTAGATGGTAAG (sugars k3 d10 k3, PS)",62,–
"GGCTACAGATTGGAAT (sugars k3 d10 k3, PS)",23,–
"GGCTTAATGTTCAGTT (sugars k3 d10 k3, PS)",54,–
"GGCTTAATTTTCGGGT (sugars k3 d10 k3, PS)",17,–
"GGGACCAAGGATATAT (sugars k3 d10 k3, PS)",17,–
"GGGAGGAGGTACTGTC (sugars k3 d10 k3, PS)",35,–
"GGGAGGTAGCTTTTGT (sugars k3 d1 m1 d8 k3, PS)",17,–
"GGGCTAATGAAAAAGG (sugars k3 d10 k3, PS)",14,–
"GGTAATCTCTTCATCC (sugars k3 d10 k3, PS)",9,–
"GGTCCATTGTTTCTTA (sugars k3 d10 k3, PS)",36,–
"GGTGCTGAGAAGATCG (sugars k3 d10 k3, PS)",33,–
"GGTTCAGTCCTTGTGT (sugars k3 d10 k3, PS)",57,–
"GTAAAATTATGCCTTG (sugars k3 d10 k3, PS)",50,–
"GTAAAGGCTGGGTGAG (sugars k3 d10 k3, PS)",41,–
"GTAACGGTGATCAAAT (sugars k3 d10 k3, PS)",34,–
"GTAAGGAATCCCTTCG (sugars k3 d10 k3, PS)",22,–

Sequence,target mRNA inhibition (1 µM) [%],other results
"GTAATAGCCAGTACAG (sugars kkdddddddddkekek, PS)",47,–
"GTAGCTTTTGTCCACC (sugars k3 d9 k3 e1, PS)",67,–
"GTAGTCCTAGGGAGGA (sugars k3 d10 k3, PS)",77,target mRNA inhibition (0.02 µM): 20%; target mRNA inhibition (0.078 µM): 50%; target mRNA inhibition (0.313 µM): 62%; target mRNA inhibition (1.25 µM): 75%; target mRNA inhibition (5 µM): 86%
"GTATCATTTGGCTTAA (sugars k3 d10 k3, PS)",29,–
"GTATCTTATAAGACTA (sugars k3 d1 m1 d8 k3, PS)",79,target mRNA inhibition (0.02 µM): 13%; target mRNA inhibition (0.078 µM): 26%; target mRNA inhibition (0.313 µM): 39%; target mRNA inhibition (1.25 µM): 66%; target mRNA inhibition (5 µM): 84%
"GTATCTTATAAGACTA (sugars k3 d10 k3, PS)",81,target mRNA inhibition (0.02 µM): 50%; target mRNA inhibition (0.078 µM): 61%; target mRNA inhibition (0.313 µM): 68%; target mRNA inhibition (1.25 µM): 87%; target mRNA inhibition (5 µM): 95%
"GTATCTTATAAGACTA (sugars kkdddddddddkekek, PS)",61,–
"GTATTCCATAAAGCTG (sugars k3 d10 k3, PS)",10,–
"GTATTCCATCTATCAG (sugars k3 d9 k3 e1, PS)",51,–
"GTATTTACTTTTAGGG (sugars k3 d10 k3, PS)",61,–
"GTATUCCATCTATCAG (sugars k3 d1 m1 d8 k3, PS)",41,–
"GTCACCTTTCATAATG (sugars k3 d9 k3 e1, PS)",21,–
"GTCACCTTTCATAATG (sugars k3 d10 k3, PS)",45,–
"GTCAGTAGAGAGCATA (sugars k3 d10 k3, PS)",85,target mRNA inhibition (0.02 µM): 0%; target mRNA inhibition (0.078 µM): 0%; target mRNA inhibition (0.313 µM): 27%; target mRNA inhibition (1.25 µM): 78%; target mRNA inhibition (5 µM): 74%
"GTCCAAAAGTGTCCTC (sugars k3 d10 k3, PS)",35,–
"GTCCACTTTTGGTGGA (sugars k3 d10 k3, PS)",14,–
"GTCCTTTGTATTTCGC (sugars k3 d10 k3, PS)",45,–
"GTCGGTCACCTTTCAT (sugars k3 d9 k3 e1, PS)",68,–
"GTCTAAACATCTCTGG (sugars k3 d10 k3, PS)",58,–
"GTCTACCTCTAAGTTA (sugars kkdddddddddkekek, PS)",15,–
"GTCTGCCTGCCTATTC (sugars k3 d10 k3, PS)",53,–
